# In US9232799B2, “N-[(het)arylethyl)] pyrazole(thio)carboxamides and their heterosubstituted analogues” (BAYER INTELLECTUAL PROPERTY GMBH, priority 2010, dated 2016):
# Experiments:
# [1] = test system: Botrytis cinerea; assay: In vivo preventive test on Botrytis cinerea (beans); conditions: Botrytis cinerea, 48 h, preventive, beans, 500 ppm of active ingredient, lesion size 2 days after inoculation; read-out: Efficacy
# Source text: To test for preventive activity, young plants are sprayed with the preparation of active compound. After the spray coating has dried on, 2 small pieces of agar covered with growth of Botrytis cinerea are placed on each leaf.
# [2] = test system: Fusarium graminearum; assay: microbe, parasite or virus in culture; format: cell-based; conditions: 50 μM
# [3] = test system: Leptosphaeria nodorum; assay: In vivo preventive test on Leptosphaeria nodorum (wheat); conditions: 500 ppm of active ingredient, evaluated 7-9 days after inoculation
# Source text: One day after this treatment, the plants are inoculated with an aqueous spore suspension of Leptosphaeria nodorum.
# [4] = test system: aflatoxines production; assay: microbe, parasite or virus in culture; format: cell-based, Aspergillus parasiticus; conditions: 50 μM
# [5] = test system: Pyrenophora teres; assay: In vivo preventive test on Pyrenophora teres (barley); conditions: 500 ppm of active ingredient, evaluated 7-9 days after inoculation
# Source text: One day after this treatment, the plants are inoculated with an aqueous spore suspension of Pyrenophora teres.
# [6] = logP by HPLC on reversed-phase column (C 18), EEC Directive 79/831 Annex V.A8; format: physicochemical
# Procedure: In table 1, the logP values were determined in accordance with EEC Directive 79/831 Annex V.A8 by HPLC (High Performance Liquid Chromatography) on a reversed-phase column (C 18), using the method described below: Temperature: 40° C.; […]
# [7] = test system: Sphaerotheca fuliginea; assay: In vivo preventive test on Sphaerotheca fuliginea (cucumber); conditions: 500 ppm of active ingredient, evaluated 7 days after inoculation
# Source text: One day after this treatment, the plants are inoculated with an aqueous spore suspension of Sphaerotheca fuliginea.
# [8] = test system: Alternaria solani; assay: In vivo preventive test on Alternaria solani (tomato); conditions: 500 ppm of active ingredient, evaluated 7 days after inoculation
# Source text: One day after this treatment, the plants are inoculated with an aqueous spore suspension of Alternaria solani.
smiles,measurement,setting,value
"Cc1nn(C)c(Cl)c1C(=O)NC(C)(C)C(=O)c1ccc2ccccc2c1 [2-1 from WO-2006/016708, 5-chloro-1,3-dimethyl-N-[2-methyl-1-(2-naphthyl)-1-oxopropan-2-yl]-1H-pyrazole-4-carboxamide, reference compound]",pest or weed control at 500 ppm,[1],< 30%
CC(Cc1ccccc1Cl)NC(=O)c1c(C(F)F)nn(C)c1F (centres unmarked) [Example 31],% Inhibition of fungal growth at 50 μM,[2],100%
same,Efficacy,[3],70%
same,% Inhibition of Aflatoxin at 50 μM,[4],100%
same,Efficacy,[5],100%
same,logP,[6],2.94
same,Efficacy,[7],96%
same,Efficacy,[8],100%
Cn1nc(C(F)F)c(C(=O)NC2CC2c2ccccc2C(F)(F)F)c1F (centres unmarked) [Example 225],% Inhibition of fungal growth at 50 μM,[2],83%
same,% Inhibition of Aflatoxin at 50 μM,[4],97%
same,Efficacy,[5],100%
same,logP,[6],3.00
same,Efficacy,[7],80%
same,Efficacy,[8],95%
CC(Cc1ccccc1Cl)NC(=S)c1c(C(F)F)nn(C)c1F (centres unmarked) [Example 37],% Inhibition of fungal growth at 50 μM,[2],78%
same,% Inhibition of Aflatoxin at 50 μM,[4],94%
same,Efficacy,[5],100%
same,logP,[6],3.61
same,Efficacy,[7],98%
same,Efficacy,[8],94%
CCC(CNC(=O)c1c(C(F)F)nn(C)c1Cl)c1ncc(C(F)(F)F)cc1Cl (centres unmarked) [Example 193],% Inhibition of fungal growth at 50 μM,[2],91%
same,% Inhibition of Aflatoxin at 50 μM,[4],100%
same,Efficacy,[5],100%
same,logP,[6],3.73
same,Efficacy,[7],83%
same,Efficacy,[8],100%
Cn1nc(C(F)F)c(C(=O)N(C[Si](C)(C)c2ccsc2)C2CC2)c1F [Example 248],% Inhibition of fungal growth at 50 μM,[2],100%
same,Efficacy,[3],94%
same,% Inhibition of Aflatoxin at 50 μM,[4],100%
same,Efficacy,[5],100%
same,logP,[6],3.55
same,Efficacy,[8],94%
Cn1nc(C(F)F)c(C(=O)N(C2CC2)C2CCCCC2c2ccccc2Cl)c1F (centres unmarked) [Example 216],% Inhibition of fungal growth at 50 μM,[2],84%
same,% Inhibition of Aflatoxin at 50 μM,[4],100%
same,Efficacy,[5],95%
same,logP,[6],4.49
same,Efficacy,[7],100%
same,Efficacy,[8],71%
Cn1nc(C(F)F)c(C(=O)N(C2CC2)C2CCCCC2(C)c2ccccc2)c1F (mixture of isomers) [Example 218],% Inhibition of fungal growth at 50 μM,[2],99%
same,Efficacy,[3],95%
same,% Inhibition of Aflatoxin at 50 μM,[4],100%
same,Efficacy,[5],100%
same,Efficacy,[7],94%
same,Efficacy,[8],70%
Cn1nc(C(F)F)c(C(=O)NC(C)(C)C(=O)c2ncc(C(F)(F)F)cc2Cl)c1Cl [Example 195],% Inhibition of fungal growth at 50 μM,[2],81%
same,Efficacy,[3],94%
same,% Inhibition of Aflatoxin at 50 μM,[4],100%
same,Efficacy,[5],100%
same,logP,[6],3.39
same,Efficacy,[7],91%
same,Efficacy,[8],95%
Cn1nc(C(F)F)c(C(=O)NCC(C)(C)c2cc(Cl)ccc2Cl)c1Cl [Example 101],% Inhibition of fungal growth at 50 μM,[2],86%
same,% Inhibition of Aflatoxin at 50 μM,[4],100%
same,Efficacy,[5],70%
same,logP,[6],3.89
same,Efficacy,[7],83%
same,Efficacy,[8],100%
CC(c1ccccc1Cl)C(C)N(C(=S)c1c(C(F)F)nn(C)c1F)C1CC1 (centres unmarked) [Example 43],% Inhibition of fungal growth at 50 μM,[2],90%
same,Efficacy,[3],100%
same,% Inhibition of Aflatoxin at 50 μM,[4],100%
same,Efficacy,[5],100%
same,logP,[6],4.72
same,Efficacy,[7],100%
same,Efficacy,[8],90%
Cn1nc(C(F)F)c(C(=O)NCC(C)(C)c2ccc(Cl)cc2Cl)c1F [Example 87],% Inhibition of fungal growth at 50 μM,[2],94%
same,Efficacy,[3],70%
same,% Inhibition of Aflatoxin at 50 μM,[4],100%
same,Efficacy,[5],94%
same,logP,[6],3.81
same,Efficacy,[8],95%
Cc1scc(CCNC(=O)c2c(C(F)F)nn(C)c2F)c1C [Example 167],% Inhibition of fungal growth at 50 μM,[2],100%
same,% Inhibition of Aflatoxin at 50 μM,[4],100%
same,Efficacy,[5],100%
same,logP,[6],2.82
same,Efficacy,[7],90%
same,Efficacy,[8],100%
CN(CCc1cc(Cl)ccc1Cl)C(=S)c1c(C(F)F)nn(C)c1F [Example 96],% Inhibition of fungal growth at 50 μM,[2],82%
same,Efficacy,[3],90%
same,% Inhibition of Aflatoxin at 50 μM,[4],100%
same,Efficacy,[5],100%
same,logP,[6],3.87
same,Efficacy,[8],95%
Cn1nc(C(F)F)c(C(=O)NC2CC2c2cccc(F)c2)c1F (centres unmarked) [Example 222],% Inhibition of fungal growth at 50 μM,[2],81%
same,Efficacy,[3],90%
same,% Inhibition of Aflatoxin at 50 μM,[4],99%
same,Efficacy,[5],100%
same,logP,[6],2.59
Cn1nc(C(F)F)c(C(=O)NC(C)(C)Cc2ccc(Oc3ccccc3)cc2)c1Cl [Example 153],Efficacy,[5],80%
same,logP,[6],4.39
same,Efficacy,[7],93%
same,Efficacy,[8],95%
COC(c1ccc(Cl)cc1Cl)C1(NC(=O)c2c(C(F)F)nn(C)c2F)CC1 (centres unmarked) [Example 79],% Inhibition of fungal growth at 50 μM,[2],98%
same,Efficacy,[3],80%
same,% Inhibition of Aflatoxin at 50 μM,[4],100%
same,Efficacy,[5],100%
same,logP,[6],3.46
same,Efficacy,[7],100%
same,Efficacy,[8],100%
CC(Cc1c(F)cccc1F)N(C(=S)c1c(C(F)F)nn(C)c1F)C1CC1 (centres unmarked) [Example 28],Efficacy,[3],95%
same,Efficacy,[5],100%
same,logP,[6],3.94
same,Efficacy,[7],100%
same,Efficacy,[8],90%
Cn1nc(C(F)F)c(C(=O)NC2CCCCC2c2ccccc2)c1Cl (centres unmarked) [Example 215],Efficacy,[5],100%
same,logP,[6],3.51
same,Efficacy,[7],93%
same,Efficacy,[8],78%
CC(Cc1ccc(Cl)cc1Cl)NC(=O)c1c(C(F)F)nn(C)c1Cl (centres unmarked) [Example 68],% Inhibition of fungal growth at 50 μM,[2],100%
same,% Inhibition of Aflatoxin at 50 μM,[4],100%
same,Efficacy,[5],100%
same,logP,[6],3.67
same,Efficacy,[7],99%
same,Efficacy,[8],95%
COC(c1ccc(Cl)cc1Cl)C1(NC(=O)c2c(C(F)F)nn(C)c2Cl)CC1 (centres unmarked) [Example 78],% Inhibition of fungal growth at 50 μM,[2],100%
same,Efficacy,[3],80%
same,% Inhibition of Aflatoxin at 50 μM,[4],100%
same,Efficacy,[5],100%
same,logP,[6],3.70
same,Efficacy,[7],100%
same,Efficacy,[8],100%
CC(CN(C(=S)c1c(C(F)F)nn(C)c1F)C1CC1)c1ccccc1 (centres unmarked) [Example 15],% Inhibition of fungal growth at 50 μM,[2],83%
same,Efficacy,[3],100%
same,% Inhibition of Aflatoxin at 50 μM,[4],100%
same,Efficacy,[5],100%
same,logP,[6],3.92
same,Efficacy,[7],100%
same,Efficacy,[8],90%
Cn1nc(C(F)F)c(C(=S)NCCc2ccc(Cl)cc2Cl)c1F [Example 71],Efficacy,[5],100%
same,logP,[6],3.99
same,Efficacy,[7],85%
same,Efficacy,[8],94%
CC(Cc1ccc(Cl)cc1Cl)NC(=S)c1c(C(F)F)nn(C)c1Cl (centres unmarked) [Example 69],% Inhibition of fungal growth at 50 μM,[2],86%
same,% Inhibition of Aflatoxin at 50 μM,[4],100%
same,logP,[6],4.29
same,Efficacy,[7],95%
same,Efficacy,[8],94%
CC(Cc1ccccc1F)N(C(=O)c1c(C(F)F)nn(C)c1F)C1CC1 (centres unmarked) [Example 19],% Inhibition of fungal growth at 50 μM,[2],100%
same,Efficacy,[3],70%
same,% Inhibition of Aflatoxin at 50 μM,[4],100%
same,Efficacy,[5],100%
same,logP,[6],3.37
same,Efficacy,[8],100%
CC(CN(C(=S)c1c(C(F)F)nn(C)c1Cl)C1CC1)c1ccccc1 (centres unmarked) [Example 16],Efficacy,[3],95%
same,Efficacy,[5],100%
same,logP,[6],4.11
same,Efficacy,[8],95%
